For 16 molecules, IC50 results are on record in US20240269298A1, “PHOSPHONYL DERIVATIVE, AND COMPOSITION AND PHARMACEUTICAL APPLICATION THEREOF” (XIZANG HAISCO PHARMACEUTICAL CO., LTD., priority 2021, published 2024).

The structures appear in SMILES notation. Like-named read-outs stand apart in the source and are kept apart here.

The test system of this assay is NCI-H1975 (EGFR-L858R-T790M) cells. Nature of the assay: Inhibitory activity on proliferation of NCI-H1975 (EGFR-L858R-T790M) cells (CTG, 72 h). The assay is classed as cell-based. The following applies: Homo sapiens. The essentials:
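IC50 values come from S-shaped dose-survival fits of CTG signal expressed as % of vehicle. Compound exposure lasted 72 h at 37 °C with 0.1% DMSO; seeding was 3000 A431 cells/well in DMEM+10% FBS and 1000 NCI-H1975 cells/well in RPMI1640+10% FBS.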

Setting [1] is: read-out: IC50 (value in brackets).

Broadly, the IC50 is the concentration that gives 50% inhibition. For the molecule `COc1cc(N2CCN(C[C@H]3CCN(c4ccc5c(c4)C(=O)N(C4CCC(=O)NC4=O)C5=O)C3)CC2)c(-c2cnn(C)c2)cc1Nc1ncc(Br)c(Nc2ccccc2P(C)(C)=O)n1` (stereo partly drawn) [Compound 122, 5-((R)-3-((4-(4-((5-bromo-4-((2-(dimethylphosphoryl)phenyl)amino)pyrimidin-2-yl)amino)-5-methoxy-2-(1-methyl-1H-pyrazol-4-yl)phenyl)piperazin-1-yl)methyl)pyrrolidin-1-yl)-2-(2,6-dioxopiperidin-3-yl)isoindoline-1,3-dione], the IC50 is, setting by setting: (read-out: IC50 (class symbol)) below 100 nM; under setting [1], 16 nM.
The matching figures for `COc1cc(N2CCN(CC3CCN(c4ccc(C(=O)NC5CCC(=O)NC5=O)nc4)CC3)CC2)c(-c2cnn(C)c2)cc1Nc1ncc(Br)c(Nc2ccc(-c3ccccc3)cc2P(C)(C)=O)n1` (centres unmarked) [Compound 123, 5-(4-((4-(4-((5-bromo-4-((3-(dimethylphosphoryl)-[1,1′-biphenyl]-4-yl)amino)pyrimidin-2-yl)amino)-5-methoxy-2-(1-methyl-1H-pyrazol-4-yl)phenyl)piperazin-1-yl)methyl)piperidin-1-yl)-N-(2,6-dioxopiperidin-3-yl)picolinamide]: below 100 nM and 51 nM.
With `COc1cc(N2CCN(CC3CCN(c4ccc(C(=O)NC5CCC(=O)NC5=O)nc4)CC3)CC2)c(-c2cnn(C)c2)cc1Nc1ncc(Cl)c(Nc2ccc(-c3ccccc3)cc2P(C)(C)=O)n1` (centres unmarked) [Compound 124, 5-(4-((4-(4-((5-chloro-4-((3-(dimethylphosphoryl)-[1,1′-biphenyl]-4-yl)amino)pyrimidin-2-yl)amino)-5-methoxy-2-(1-methyl-1H-pyrazol-4-yl)phenyl)piperazin-1-yl)methyl)piperidin-1-yl)-N-(2,6-dioxopiperidin-3-yl)picolinamide], the IC50 runs as follows: (read-out: IC50 (class symbol)) below 100 nM; under setting [1], 71 nM.
For `COc1cc(N2CCN(CC3CCN(c4ccc5c(c4)C(=O)N(C4CCC(=O)NC4=O)C5=O)CC3)CC2)c(-c2cnn(C)c2)cc1Nc1ncc(Br)c(Nc2ccccc2P(C)(C)=O)n1` (centres unmarked) [Compound 127, 5-(4-((4-(4-((5-bromo-4-((2-(dimethylphosphoryl)phenyl)amino)pyrimidin-2-yl)amino)-5-methoxy-2-(1-methyl-1H-pyrazol-4-yl)phenyl)piperazin-1-yl)methyl)piperidin-1-yl)-2-(2,6-dioxopiperidin-3-yl)isoindoline-1,3-dione], in that order: below 100 nM and 19 nM.
As to `COc1cc(N2CCN(CC3CCN(c4ccc5c(c4)C(=O)N(C4CCC(=O)NC4=O)C5=O)CC3)CC2)c(-c2cnn(C)c2)cc1Nc1ncc(Cl)c(Nc2ccccc2P(C)(C)=O)n1` (centres unmarked) [Compound 128, 5-(4-((4-(4-((5-chloro-4-((2-(dimethylphosphoryl)phenyl)amino)pyrimidin-2-yl)amino)-5-methoxy-2-(1-methyl-1H-pyrazol-4-yl)phenyl)piperazin-1-yl)methyl)piperidin-1-yl)-2-(2,6-dioxopiperidin-3-yl)isoindoline-1,3-dione], the IC50 (read-out: IC50 (class symbol)) was below 100 nM and the IC50 under setting [1] came to 25 nM.
As for `COc1cc(N2CCC3(CCN(Cc4cccc(NC5CCC(=O)NC5=O)c4)CC3)CC2)c(-c2cnn(C)c2)cc1Nc1ncc(Br)c(Nc2ccc(-c3ccccc3)cc2P(C)(C)=O)n1` (centres unmarked) [Compound 129, 3-((3-((9-(4-((5-bromo-4-((3-(dimethylphosphoryl)-[1,1′-biphenyl]-4-yl)amino)pyrimidin-2-yl)amino)-5-methoxy-2-(1-methyl-1H-pyrazol-4-yl)phenyl)-3,9-diazaspiro[5.5]undecan-3-yl)methyl)phenyl)amino)piperidine-2,6-dione], the IC50 is, setting by setting: (read-out: IC50 (class symbol)) 100 to 500 nM; under setting [1], 125 nM.
For the molecule `COc1cc(N2CCC3(CCN(Cc4cccc(NC5CCC(=O)NC5=O)c4)CC3)CC2)c(-c2cnn(C)c2)cc1Nc1ncc(Cl)c(Nc2ccc(-c3ccccc3)cc2P(C)(C)=O)n1` (centres unmarked) [Compound 130, 3-((3-((9-(4-((5-chloro-4-((3-(dimethylphosphoryl)-[1,1′-biphenyl]-4-yl)amino)pyrimidin-2-yl)amino)-5-methoxy-2-(1-methyl-1H-pyrazol-4-yl)phenyl)-3,9-diazaspiro[5.5]undecan-3-yl)methyl)phenyl)amino)piperidine-2,6-dione], the IC50 reads like this: (read-out: IC50 (class symbol)) 100 to 500 nM; under setting [1], 118 nM.
For `COc1cc(N2CCC(CN3CCN(c4ccc(N5CCC(=O)NC5=O)cc4)CC3)CC2)c(-c2cnn(C)c2)cc1Nc1ncc(Cl)c(Nc2ccc(C3CC3)cc2P(C)(C)=O)n1` [Compound 131, 1-(4-(4-((1-(4-((5-chloro-4-((4-cyclopropyl-2-(dimethylphosphoryl)phenyl)amino)pyrimidin-2-yl)amino)-5-methoxy-2-(1-methyl-1H-pyrazol-4-yl)phenyl)piperidin-4-yl)methyl)piperazin-1-yl)phenyl)dihydropyrimidine-2,4(1H,3H)-dione], in that order: 100 to 500 nM and 214 nM.
The matching figures for `COc1cc(N2CCC(CN3CCN(c4ccc(N5CCC(=O)NC5=O)cc4)CC3)CC2)c(-c2cnn(C)c2)cc1Nc1ncc(Cl)c(Nc2ccccc2P(C)(C)=O)n1` [Compound 132, 1-(4-(4-((1-(4-((5-chloro-4-((2-(dimethylphosphoryl)phenyl)amino)pyrimidin-2-yl)amino)-5-methoxy-2-(1-methyl-1H-pyrazol-4-yl)phenyl)piperidin-4-yl)methyl)piperazin-1-yl)phenyl)dihydropyrimidine-2,4(1H,3H)-dione]: 100 to 500 nM and 296 nM.
`COc1cc(N2CCC(CN3CCN(c4ccc(C5CCC(=O)NC5=O)cc4)CC3)CC2)c(-c2cnn(C)c2)cc1Nc1ncc(Cl)c(Nc2ccccc2P(C)(C)=O)n1` (centres unmarked) [Compound 135, 3-(4-(4-((1-(4-((5-chloro-4-((2-(dimethylphosphoryl)phenyl)amino)pyrimidin-2-yl)amino)-5-methoxy-2-(1-methyl-1H-pyrazol-4-yl)phenyl)piperidin-4-yl)methyl)piperazin-1-yl)phenyl)piperidine-2,6-dione]: the IC50 reads like this: (read-out: IC50 (class symbol)) below 100 nM; under setting [1], 82 nM.
The matching figures for `COc1cc(N2CCC(CN3CCN(c4ccc(N5CCC(=O)NC5=O)cc4)CC3)CC2)c(-c2cnn(C)c2)cc1Nc1ncc(Cl)c(Nc2ccc(-c3ccccc3)cc2P(C)(C)=O)n1` [Compound 136, 1-(4-(4-((1-(4-((5-chloro-4-((3-(dimethylphosphoryl)-[1,1′-biphenyl]-4-yl)amino)pyrimidin-2-yl)amino)-5-methoxy-2-(1-methyl-1H-pyrazol-4-yl)phenyl)piperidin-4-yl)methyl)piperazin-1-yl)phenyl)dihydropyrimidine-2,4(1H,3H)-dione]: 100 to 500 nM and 393 nM.
The matching figures for `COc1cc(N2CCC(CN3CCN(c4ccc5c(c4)CN(C4CCC(=O)NC4=O)C5=O)CC3)CC2)c(-c2cnn(C)c2)cc1Nc1ncc(Cl)c(Nc2ccccc2P(C)(C)=O)n1` (centres unmarked) [Compound 140, 3-(5-(4-((1-(4-((5-chloro-4-((2-(dimethylphosphoryl)phenyl)amino)pyrimidin-2-yl)amino)-5-methoxy-2-(1-methyl-1H-pyrazol-4-yl)phenyl)piperidin-4-yl)methyl)piperazin-1-yl)-1-oxoisoindolin-2-yl)piperidine-2,6-dione]: below 100 nM and 32 nM.
The matching figures for `COc1cc(N2CCN(C3CN(c4ccc5c(c4)C(=O)N(C4CCC(=O)NC4=O)C5=O)C3)CC2)c(-c2cnn(C)c2)cc1Nc1ncc(Cl)c(Nc2ccccc2P(C)(C)=O)n1` (centres unmarked) [Compound 149, 5-(3-(4-(4-((5-chloro-4-((2-(dimethylphosphoryl)phenyl)amino)pyrimidin-2-yl)amino)-5-methoxy-2-(1-methyl-1H-pyrazol-4-yl)phenyl)piperazin-1-yl)azetidin-1-yl)-2-(2,6-dioxopiperidin-3-yl)isoindoline-1,3-dione]: 100 to 500 nM and 116 nM.
In the case of `COc1cc(N2CCN(C3CN(c4ccc5c(c4)C(=O)N(C4CCC(=O)NC4=O)C5=O)C3)CC2)c(-c2cnn(C)c2)cc1Nc1ncc(Br)c(Nc2ccccc2P(C)(C)=O)n1` (centres unmarked) [Compound 151, 5-(3-(4-(4-((5-bromo-4-((2-(dimethylphosphoryl)phenyl)amino)pyrimidin-2-yl)amino)-5-methoxy-2-(1-methyl-1H-pyrazol-4-yl)phenyl)piperazin-1-yl)azetidin-1-yl)-2-(2,6-dioxopiperidin-3-yl)isoindoline-1,3-dione], the IC50 is below 100 nM (read-out: IC50 (class symbol)) and 35 nM under setting [1].
For the molecule `COc1cc(N2CCC(CN3CCN(c4ccc(C5CCC(=O)NC5=O)cc4)CC3)CC2)c(-c2cnn(C)c2)cc1Nc1ncc(Cl)c(Nc2ccc(C3CC3)cc2P(C)(C)=O)n1` (centres unmarked) [Compound 152, 3-(4-(4-((1-(4-((5-chloro-4-((4-cyclopropyl-2-(dimethylphosphoryl)phenyl)amino)pyrimidin-2-yl)amino)-5-methoxy-2-(1-methyl-1H-pyrazol-4-yl)phenyl)piperidin-4-yl)methyl)piperazin-1-yl)phenyl)piperidine-2,6-dione], the IC50 (read-out: IC50 (class symbol)) is below 100 nM and the 50% inhibitory concentration (IC50) under setting [1] worked out at 68 nM.
For `COc1cc(N2CCC(CN3CCN(c4ccc(C5CCC(=O)NC5=O)c(F)c4)CC3)CC2)c(-c2cnn(C)c2)cc1Nc1ncc(Cl)c(Nc2ccc(C3CC3)cc2P(C)(C)=O)n1` (centres unmarked) [Compound 153, 3-(4-(4-((1-(4-((5-chloro-4-((4-cyclopropyl-2-(dimethylphosphoryl)phenyl)amino)pyrimidin-2-yl)amino)-5-methoxy-2-(1-methyl-1H-pyrazol-4-yl)phenyl)piperidin-4-yl)methyl)piperazin-1-yl)-2-fluorophenyl)piperidine-2,6-dione], the IC50 was below 100 nM (read-out: IC50 (class symbol)) and 73 nM under setting [1].
